# Results taken from patent publication US9763957B2, “Autotaxin inhibitors” (Novartis AG, priority 2013, dated 2017).
# Molecular target: Recombinant human ATX (Homo sapiens (Human), UniProt Q13822)
# Test: ATX inhibition assay (choline release, Amplex Red fluorescence)
# Assay type: biochemical
# Details: ATX 10 nM, LPC 18:1 10 μM, 37° C., 20 min pre-incubation; mean of n≧2
# How it was run: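 Activity was taken from the slope of resorufin fluorescence (530/590 nm, read every 2 min for 40 min at 37 °C) produced by choline liberated from 10 μM oleoyl LPC.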
row,Compound,IC50
1,"Cc1nnn(Cc2cc(C(F)(F)F)ccc2/C=C/C(=O)N2CCC(Cc3nnc(C)o3)CC2)n1 [Example 81, (E)-1-(4-((5-Methyl-1,3,4-oxadiazol-2-yl)methyl)piperidin-1-yl)-3-(2-((5-methyl-2H-tetrazol-2-yl)methyl)-4-(trifluoromethyl)phenyl)prop-2-en-1-one]",13 nM
2,"Cc1nnn(Cc2cc(C#N)ccc2/C=C/C(=O)N2CCC(Cc3nnc(C)o3)CC2)n1 [Example 82, (E)-4-(3-(4-((5-Methyl-1,3,4-oxadiazol-2-yl)methyl)piperidin-1-yl)-3-oxoprop-1-en-1-yl)-3-((5-methyl-2H-tetrazol-2-yl)methyl)benzonitrile]",785 nM
3,"COc1ccc(/C=C/C(=O)N2CCC(Cc3nnc(C)o3)CC2)c(Cn2nnc(C)n2)c1 [Example 83, (E)-3-(4-Methoxy-2-((5-methyl-2H-tetrazol-2-yl)methyl)phenyl)-1-(4-((5-methyl-1,3,4-oxadiazol-2-yl)methyl)piperidin-1-yl)prop-2-en-1-one]",846 nM
4,"COCC(=O)N(C)C1CCN(C(=O)/C=C/c2ccc(C(F)(F)F)cc2Cn2nnc(C)n2)CC1 [Example 84, (E)-2-Methoxy-N-methyl-N-(1-(3-(2-((5-methyl-2H-tetrazol-2-yl)methyl)-4-(trifluoromethyl)phenyl)acryloyl)piperidin-4-yl)acetamide]",8.1 nM
5,"Cc1nnn(Cc2cc(Cl)ccc2/C=C/C(=O)N2CC(c3nnc(C)o3)C2)n1 [Example 85, (E)-3-(4-Chloro-2-((5-methyl-2H-tetrazol-2-yl)methyl)phenyl)-1-(3-(5-methyl-1,3,4-oxadiazol-2-yl)azetidin-1-yl)prop-2-en-1-one]",289 nM
6,"Cc1nnn(Cc2cc(C(F)(F)F)ccc2/C=C/C(=O)N2CCC(c3nnc(C4CC4)o3)CC2)n1 [Example 86, (E)-1-(4-(5-Cyclopropyl-1,3,4-oxadiazol-2-yl)piperidin-1-yl)-3-(2-((5-methyl-2H-tetrazol-2-yl)methyl)-4-(trifluoromethyl)phenyl)prop-2-en-1-one]",4.8 nM
7,Cc1nnn(Cc2cc(C(F)(F)F)ccc2/C=C/C(=O)N2CCC(N(C)C(=O)c3ccc(F)cc3)CC2)n1 [Example 87],19 nM
8,"Cc1noc(CN2CCN(C(=O)/C=C/c3ccc(C(F)(F)F)cc3Cn3nnc(C)n3)CC2)n1 [Example 88, (E)-1-(4-((3-Methyl-1,2,4-oxadiazol-5-yl)methyl)piperazin-1-yl)-3-(2-((5-methyl-2H-tetrazol-2-yl)methyl)-4-(trifluoromethyl)phenyl)prop-2-en-1-one]",16 nM
9,"Cc1nnn(Cc2cc(C(F)(F)F)ccc2/C=C/C(=O)N2CCN(Cc3ccn(C)n3)CC2)n1 [Example 89, (E)-1-(4-((1-Methyl-1H-pyrazol-3-yl)methyl)piperazin-1-yl)-3-(2-((5-methyl-2H-tetrazol-2-yl)methyl)-4-(trifluoromethyl)phenyl)prop-2-en-1-one]",3.5 nM
10,"CNC(=O)[C@@H]1CCCN1C(=O)/C=C/c1ccc(C(F)(F)F)cc1Cn1nnc(C)n1 [Example 90, (S,E)-N-Methyl-1-(3-(2-((5-methyl-2H-tetrazol-2-yl)methyl)-4-(trifluoromethyl)phenyl)acryloyl)pyrrolidine-2-carboxamide]",49 nM
11,"CNC(=O)[C@@H]1CC(F)(F)CN1C(=O)/C=C/c1ccc(C(F)(F)F)cc1Cn1nnc(C)n1 [Example 91, (S,E)-4,4-Difluoro-N-methyl-1-(3-(2-((5-methyl-2H-tetrazol-2-yl)methyl)-4-(trifluoromethyl)phenyl)acryloyl)pyrrolidine-2-carboxamide]",160 nM
12,"CCc1nnc(C2CCN(C(=O)/C=C/c3ccc(C(F)(F)F)cc3Cn3nnc(C)n3)CC2)o1 [Example 92, (E)-1-(4-(5-Ethyl-1,3,4-oxadiazol-2-yl)piperidin-1-yl)-3-(2-((5-methyl-2H-tetrazol-2-yl)methyl)-4-(trifluoromethyl)phenyl)prop-2-en-1-one]",3.6 nM
13,"Cc1nnn(Cc2cc(C(F)(F)F)ccc2/C=C/C(=O)N2CCN(Cc3noc(C)n3)CC2)n1 [Example 93, (E)-1-(4-((5-Methyl-1,2,4-oxadiazol-3-yl)methyl)piperazin-1-yl)-3-(2-((5-methyl-2H-tetrazol-2-yl)methyl)-4-(trifluoromethyl)phenyl)prop-2-en-1-one]",10 nM
14,"CCc1nnc(C2CCN(C(=O)/C=C/c3ccc(Cl)cc3Cn3nnc(C)n3)CC2)o1 [Example 94, (E)-3-(4-Chloro-2-((5-methyl-2H-tetrazol-2-yl)methyl)phenyl)-1-(4-(5-ethyl-1,3,4-oxadiazol-2-yl)piperidin-1-yl)prop-2-en-1-one]",10 nM
15,"Cc1cc(CC(=O)N(C)C2CCN(C(=O)/C=C/c3ccc(C(F)(F)F)cc3Cn3nnc(C)n3)CC2)on1 [Example 95, (E)-N-Methyl-N-(1-(3-(2-((5-methyl-2H-tetrazol-2-yl)methyl)-4-(trifluoromethyl)phenyl)acryloyl)piperidin-4-yl)-2-(3-methylisoxazol-5-yl)acetamide]",25 nM
16,"Cc1nnn(Cc2cc(Cl)ccc2/C=C/C(=O)N2CCC(c3nnc(C4CC4)o3)CC2)n1 [Example 96, (E)-3-(4-Chloro-2-((5-methyl-2H-tetrazol-2-yl)methyl)phenyl)-1-(4-(5-cyclopropyl-1,3,4-oxadiazol-2-yl)piperidin-1-yl)prop-2-en-1-one]",8.3 nM
17,"Cc1nnn(Cc2cc(C(F)(F)F)ccc2/C=C/C(=O)N2CCC(N3CCCCC3=O)CC2)n1 [Example 97, (E)-1′-(3-(2-((5-Methyl-2H-tetrazol-2-yl)methyl)-4-(trifluoromethyl)phenyl)acryloyl)-[1,4′-bipiperidin]-2-one]",23 nM
18,"Cc1nnn(Cc2cc(Cl)ccc2/C=C/C(=O)N2CC[C@@H](c3nnc(C)o3)C[C@H]2C)n1 [Example 98, (E)-3-(4-Chloro-2-((5-methyl-2H-tetrazol-2-yl)methyl)phenyl)-1-((2R,4R)-2-methyl-4-(5-methyl-1,3,4-oxadiazol-2-yl)piperidin-1-yl)prop-2-en-1-one]",66 nM
19,"COCC1CCN(C(=O)/C=C/c2ccc(C(F)(F)F)cc2Cn2nnc(C)n2)CC1 [Example 99, (E)-1-(4-(Methoxymethyl)piperidin-1-yl)-3-(2-((5-methyl-2H-tetrazol-2-yl)methyl)-4-(trifluoromethyl)phenyl)prop-2-en-1-one]",25 nM
20,"Cc1nnn(Cc2cc(Cl)ccc2/C=C/C(=O)N2CCC(c3nnc(C(C)C)o3)CC2)n1 [Example 100, (E)-3-(4-Chloro-2-((5-methyl-2H-tetrazol-2-yl)methyl)phenyl)-1-(4-(5-isopropyl-1,3,4-oxadiazol-2-yl)piperidin-1-yl)prop-2-en-1-one]",3.9 nM
21,"Cc1cc(CN2CCN(C(=O)/C=C/c3ccc(C(F)(F)F)cc3Cn3nnc(C)n3)CC2)on1 [Example 101, (E)-3-(2-((5-Methyl-2H-tetrazol-2-yl)methyl)-4-(trifluoromethyl)phenyl)-1-(4-((3-methylisoxazol-5-yl)methyl)piperazin-1-yl)prop-2-en-1-one]",5 nM
22,"CCS(=O)(=O)N1CCN(C(=O)/C=C/c2ccc(C(F)(F)F)cc2Cn2nnc(C)n2)CC1 [Example 102, (E)-1-(4-(Ethylsulfonyl)piperazin-1-yl)-3-(2-((5-methyl-2H-tetrazol-2-yl)methyl)-4-(trifluoromethyl)phenyl)prop-2-en-1-one]",53 nM
